# Experiments:
# [1] = test system: LLC cell subcutaneous xenograft tumors; assay: Subcutaneous LLC xenograft tumor model in mice (tumor growth, volume, weight); assay type: in vivo, mouse (C57BL/6J)
# Experimental: FIG. 1 panel A: Experimental pattern diagram. Mice were first subcutaneously injected with LLC cells (2*10^5 cells per mouse) to establish xenograft tumors. After 14 days of tumor formation, mice received SeMet treatment for two weeks, with intraperitoneal injection of SeMet at a dose of 2 mg/kg, 5 times per week; FIG. 1 panel B: Tumor growth statistical curve in mice; FIG. 1 panel C: Representative photographic results of mouse tumors.
# FIG. 5 illustrates the therapeutic effects of SeMet and PD-1 antibody on LLC cell subcutaneous xenograft tumors in mice. FIG. 5 panel A: Experimental pattern diagram. Mice were first subcutaneously injected with LLC cells (2*10^5 cells per mouse) to establish xenograft tumors. After 14 days of tumor formation, mice were treated with SeMet and PD-1 antibody alone or in combination by intraperitoneal injection for two weeks. The dosage of SeMet was 2 mg/kg, 5 times per week; the dosage of PD-1 antibody was 200 μg per mouse, 2 times per week; FIG. 5 panel B: Tumor growth statistical curve in mice; FIG. 5 panel C: Ratio of tumor to body weight in mice; FIG. 5 panel D: Representative photographic results of mouse tumors.
# All animal experiments were approved by the Animal Ethics Committee of the Institute of Nutrition Sciences, Shanghai Institutes for Biological Sciences, Chinese Academy of Sciences, and were conducted in accordance with the protocols approved by the Animal Care and Use Committee of Shanghai Institutes for Biological Sciences. Six-week-old C57BL/6J mice were purchased from Shanghai Slake Experimental Animal Co., Ltd. and were housed in an SPF-grade animal facility. […] The tumor size was measured every two days, and the tumor volume (mm^3) was calculated using the following formula: ½×a×b^2, wherein a was the long diameter and b was the short diameter of the tumor. After the mice were euthanized, the tumors were excised, weighed, and the average weight of tumors in each group was calculated. The excised tumors were fixed with paraformaldehyde for subsequent immunohistochemical or immunofluorescence analysis.
# C57BL/6J mice were subcutaneously injected with LLC cells (2*10^5 cells per mouse) to establish xenograft tumors. After 14 days of tumor formation, mice received SeMet treatment for two weeks (FIG. 1 panel A).
# Subsequently, we investigated the therapeutic effects of SeMet and PD-1 antibody used alone or in combination on LLC cell subcutaneous xenograft tumors in mice. Mice were first subcutaneously injected with LLC cells (2*10^5 cells per mouse) to establish xenograft tumors. After 14 days of tumor formation, mice were treated with SeMet and PD-1 antibody alone or in combination by intraperitoneal injection for two weeks. The dosage and frequency of SeMet were the same as previously described, while the dosage of PD-1 antibody was 200 μg per mouse, 2 times per week (FIG. 5 panel A).
# An L-selenomethionine was used to construct an N-acetyl-selenomethionine (N-Ac-SeMet) to improve its stability. To verify the therapeutic effect of the N-acetyl-selenomethionine on lung cancer, C57BL/6J mice were subcutaneously injected with LLC cells (2*10^5 cells per mouse) to establish xenograft tumors and divided into four groups: control group, selenomethionine (SeMet) treated group, N-acetyl-selenomethionine (N-Ac-SeMet) treated group, and anti-PD1 treated group. After 14 days of tumor formation, the mice in each group were treated for two weeks.
# [2] = test system: CD45+ immune cells, CD25+Foxp3+ Treg cells, IL-17a+ TH17 cells; assay: Flow cytometry of immune cells in LLC xenograft tumors; assay type: in vivo, mouse (C57BL/6J)
# Experimental: Preparation of single-cell suspension from mouse tumor cells: 200 mg of mouse tumor tissue was obtained, cut into pieces and added to 2.43 ml of tumor digestion solution, followed by digestion in a 37° C. shaking water bath for 30 minutes. Flow cytometry staining included surface antigen staining and intracellular factor (cytokines and transcription factors) staining. For the cytokine detection, broad-spectrum activation inhibitors (PMA, ionomycin, or BFA, added at a ratio of 1:1000) were first prepared with the RPMI-1640 medium. 100 μl of each reagent was added to resuspend the cells, and the cells were then transferred to a 96-well plate and treated in a 37° C. cell incubator for 4-6 h. Subsequently, 200 μl of FACS buffer was added, and the cells were pipetted to mix evenly before transferred to a 1.5 ml eppendorf tube. The tube was centrifuged at 350 g for 5 minutes, and the supernatant was carefully aspirated. Cells were resuspended in 100 μl of PBS. For the surface antigen staining, the above steps were omitted. The cell suspension was placed on ice, and live/dead dye (at a ratio of 1:1000) was added. Staining was performed on ice in darkness for 30 minutes. Cells were washed with 1 ml of PBS, centrifuged at 350 g for 5 minutes, and the supernatant was carefully removed. The cell precipitate was resuspended in the FACS buffer, and the blocking antibody CD16/CD32 was added at a ratio of 1:200. The mixture was placed on ice in darkness for 30 minutes. Subsequently, surface antibodies were added at a ratio of 1:200: CD45, CD3, CD4, and CD25 antibodies were sequentially added for Treg cell surface staining; CD45, CD3, and CD4 antibodies were sequentially added for Th17 cell staining. Incubation was performed on ice in darkness for 30 minutes. Cells were washed with 1 ml of the FACS buffer, then centrifuged at 350 g for 5 minutes, and the supernatant was carefully removed. For intracellular factor staining, 250 μl of the fixation/permeabilization solution was added, and the cells were incubated on ice in darkness for 2 h. Then, 1 ml of the fixation/permeabilization wash buffer was added, the cells were centrifuged at 500 g for 5 minutes, and the supernatant was carefully removed. Cells were resuspended in the fixation/permeabilization wash buffer, and intracellular antibodies Foxp3 and IL-17A were added at a ratio of 1:200. The cells were incubated on ice in darkness for 30 minutes. After washing with 1 ml of the FACS buffer and centrifugation at 500 g for 5 minutes, the supernatant was carefully removed. Cells were resuspended in 200 μl of the FACS buffer and prepared for flow cytometry analysis.
# B16 melanoma cells = assay: Subcutaneous B16 melanoma xenograft tumor model in mice; assay type: in vivo, mouse (C57BL/6J); details: C57BL/6J mice, B16 2*10^5 cells s.c.; treated two weeks from day 14; FIG. 10
# Experimental: To verify the therapeutic effect of selenomethionine (SeMet) on melanoma, C57BL/6J mice were subcutaneously injected with B16 melanoma cells (2*10^5 cells per mouse) to establish xenograft tumors. After 14 days of tumor formation, the mice were treated with SeMet for two weeks (FIG. 10 panel A).
# colon cancer CT26 cells = assay: Orthotopic CT26 colon cancer model in mice; assay type: in vivo, mouse (BALB/C); details: BALB/C mice, CT26 tumor pieces implanted orthotopically at cecal end; treatment from second day; effects similar to anti-PD1; FIG. 12 A-B
# From the text: To verify the therapeutic effect of selenomethionine (SeMet) on colon cancer, BALB/C mice were subcutaneously inoculated with colon cancer CT26 cells. After subcutaneous xenograft tumors grew to a certain size, the tumors were cut into 1 mm*1 mm*1 mm pieces that were then orthotopically implanted at the cecal end of the mice. SeMet intervention was initiated on the second day after orthotopic tumor formation.
# CD4 and Foxp3 = assay: qPCR of CD4 and Foxp3 expression in LLC xenograft tumors; assay type: in vivo, mouse (C57BL/6J); details: vs control group, FIG. 7A
# Experimental: After the cells were cultured or treated, the medium was discarded, and the cells were washed once with ice-cold PBS. Then, 1 mL of Trizol reagent was added, and the cells were completely blown down. If it was for the tissue, 10-20 mg of tissue was homogenized into a homogenate using a grinder, with the addition of steel beads and 1 mL of Trizol. 200 μL of chloroform was added into the cell or tissue homogenate in 1 mL of Trizol, mixed vigorously, and placed on ice for 5 minutes. The mixture was centrifuged at 12,000 rpm for 10 minutes at 4° C. Then, 400 μL of the supernatant was carefully aspirated and added to an equal volume of isopropanol, vigorously mixed, and placed on ice for 15 minutes and centrifuged again at 12,000 rpm for 10 minutes at 4° C. Afterwards, a white RNA precipitate was visible at the bottom. The supernatant was carefully discarded, and 1 ml of 75% ethanol (diluted with DEPC-treated water) was added. […] A certain volume of DEPC-treated water was added to dissolve the RNA, and the concentration was measured. […] The genomic DNA removal reaction system was as follows: According to the gene primers to be detected, the above-mentioned Mix without the cDNA template was prepared, mixed thoroughly, and kept on ice until use. […] The detection program was as follows: After detection, the relative gene expression levels were calculated using the 2^−┐┐T method.
# [3] = test system: Treg cells, IL-17a-secreting TH17 cells; assay: Flow cytometry of Treg and TH17 cells in CT26 colon tumors; assay type: in vivo, mouse (BALB/C)
# Experimental: (§1) Preparation of single-cell suspension from mouse tumor cells: 200 mg of mouse tumor tissue was obtained, cut into pieces and added to 2.43 ml of tumor digestion solution, followed by digestion in a 37° C. shaking water bath for 30 minutes. Flow cytometry staining included surface antigen staining and intracellular factor (cytokines and transcription factors) staining. For the cytokine detection, broad-spectrum activation inhibitors (PMA, ionomycin, or BFA, added at a ratio of 1:1000) were first prepared with the RPMI-1640 medium. 100 μl of each reagent was added to resuspend the cells, and the cells were then transferred to a 96-well plate and treated in a 37° C. cell incubator for 4-6 h. Subsequently, 200 μl of FACS buffer was added, and the cells were pipetted to mix evenly before transferred to a 1.5 ml eppendorf tube. The tube was centrifuged at 350 g for 5 minutes, and the supernatant was carefully aspirated. Cells were resuspended in 100 μl of PBS. For the surface antigen staining, the above steps were omitted. The cell suspension was placed on ice, and live/dead dye (at a ratio of 1:1000) was added. Staining was performed on ice in darkness for 30 minutes. Cells were washed with 1 ml of PBS, centrifuged at 350 g for 5 minutes, and the supernatant was carefully removed. […]
# [4] = test system: Treg cells, IL-17a-secreting TH17 cells; assay: Flow cytometry of Treg and TH17 cells in B16 xenograft tumors; assay type: in vivo, mouse (C57BL/6J)
# Experimental: as §1
# [5] = Selenium content in subcutaneous xenograft tumors; assay type: in vivo, mouse; details: mice, after SeMet treatment
# PD-L1 = assay: qPCR, WB and immunofluorescence of PD-L1 expression in LLC xenograft tumors; assay type: in vivo, mouse (C57BL/6J); details: immunofluorescence, FIG. 4
# selenoproteins = assay: qPCR / Western blot of selenoprotein expression in LLC xenograft tumors; assay type: in vivo, mouse (C57BL/6J)
# [6] = NSCLC subcutaneous xenograft tumor model, vs control group, summary statement
# [7] = NSCLC subcutaneous xenograft tumor model, summary statement
structure (smiles),measurement,setting,value
"C[Se]CC[C@H](NC(C)=O)C(=O)O [N-Ac-SeMet, N-acetyl-selenomethionine]",average tumor weight,"[1]; LLC s.c. tumors, end of treatment, vs control, p<0.05, FIG. 8C",significantly lower than those in the control group
same,tumor weight-to-body weight ratio,"[1]; LLC s.c. tumors, end of treatment, vs control, p<0.05, FIG. 8D",significantly lower than those in the control group
same,tumor volume,"[1]; LLC s.c. tumors, treated two weeks from day 14, Day 15, vs control, p<0.05, FIG. 8 A-B",significantly smaller than that in the control group
same,proportion of Treg (CD25+Foxp3+) cells in tumors,"[2]; LLC tumors, flow cytometry, FIG. 9 A-B",significantly reduced
same,proportion of Th17 (IL-17a+) cells in tumors,"[2]; LLC tumors, flow cytometry, FIG. 9 C-D",significantly increased
"C[Se]CC[C@H](N)C(=O)O [SeMet, L-selenomethionine]",growth of subcutaneous B16 tumors,B16 melanoma cells,"effectively inhibited the growth of subcutaneous B16 tumors, with effects similar to anti-PD1 treatment"
same,colon cancer growth,colon cancer CT26 cells,effectively inhibited
same,expression levels of CD4 and Foxp3 (mRNA),CD4 and Foxp3,reduced
same,proportion of Treg cells,"[3]; FIG. 12 C, E",significantly reduced
same,proportion of IL-17a-secreting TH17 cells,"[3]; FIG. 12 D, F",increased
same,proportion of Treg cells,"[4]; FIG. 11 A, C",significantly reduced
same,proportion of IL-17a-secreting TH17 cells,"[4]; FIG. 11 B, D",significantly increased
same,growth of subcutaneous LLC tumors (tumor growth curves),"[1]; C57BL/6J mice, LLC 2*10^5 cells s.c., after 14 days SeMet 2 mg/kg i.p. 5 times per week for two weeks, FIG. 1",effectively inhibit the growth of subcutaneous LLC tumors
same,tumor growth,"[1]; LLC s.c. tumors, i.p. two weeks from day 14, SeMet 2 mg/kg 5 times per week, PD-1 antibody 200 μg per mouse 2 times per week, alone or combined, vs control, FIG. 5B",significantly reduced
same,tumor mass,[1]; [6],significantly reduced
same,tumor volume,[1]; [6],significantly reduced
same,tumor growth,[1]; [7],significantly inhibit tumor growth
same,tumor volume and mass compared with the PD-1 group,[1]; [7],no significant difference
same,ratio of tumor to body weight,"[1]; same study as FIG. 5B, FIG. 5C",validated this result
same,visual inspection of excised subcutaneous mouse tumors,"[1]; same study, FIG. 5D",significantly reduced
same,number of CD45+ immune cells,"[2]; LLC tumors digested into single cells, flow cytometry, FIG. 7 B-C",significantly increased
same,proportion of CD25+Foxp3+ Treg cells,"[2]; LLC tumors, flow cytometry, FIG. 7 D-E",significantly reduced
same,proportion of IL-17a-secreting TH17 cells,"[2]; LLC tumors, flow cytometry, FIG. 7 F-G",significantly increased
same,number of Treg cells infiltrating the tumor,"[2]; NSCLC tissues, flow sorting, summary statement",significantly reduced
same,selenium content in subcutaneous xenograft tumors,[5],significantly increased
same,expression of PD-L1,PD-L1,increased
same,expression of SOD1 and GPX1 at the protein level,"selenoproteins; LLC xenograft tumors, vs control group, WB, FIG. 3 M-N",significant increase
same,"expression of selenoproteins SOD1, SOD2, GPX1, GPX2, GPX4, Sephs2, Sepx1, SelS, SelP, Txnrd1, Txnrd2, Txnrd3 at the mRNA level","selenoproteins; LLC xenograft tumors, vs control group, qPCR, FIG. 3 A-L",significant increase
same,"expression of selenoproteins GPX1, GPX2, SOD1, SOD2, Sephs2, Sepx1, SelS, Txnrd1, Txnrd2, SelF, Selk, SelW, MT2 at the mRNA level","selenoproteins; LLC xenograft tumors, vs control group, qPCR, FIG. 6",increased
same,"levels of major selenoproteins, including GPX1, GPX4","selenoproteins; NSCLC tissues after treatment, summary statement",significantly increased

# Source: US20250332132A1, “SELENIUM-CONTAINING SUBSTANCE FOR TREATMENT OF CANCER” (SHANGHAI INSTITUTE OF NUTRITION AND HEALTH, CHINESE ACADEMY …, priority 2022, published 2025)
